In PMC11758220, “Identification of a Privileged Scaffold for Inhibition of Sterol Transport Proteins through the Synthesis and Ring Distortion of Diverse, Pseudo-Natural Products” (ACS Central Science, 2025):

Target: T1, Aster-A (Homo sapiens, UniProt Q96CP6)
T1 construct: Aster-A(359-547); GST (PreScission-cleavable) (N, cleaved yes); made in house; host or cells: E. coli OverExpress C41
T1 sequence (Q96CP6 359-547): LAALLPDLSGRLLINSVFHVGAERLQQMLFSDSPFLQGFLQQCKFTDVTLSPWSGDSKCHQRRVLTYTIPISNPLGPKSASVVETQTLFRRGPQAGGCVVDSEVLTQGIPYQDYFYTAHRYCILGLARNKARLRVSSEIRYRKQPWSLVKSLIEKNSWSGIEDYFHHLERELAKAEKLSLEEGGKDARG
Assay: Differential scanning fluorimetry (DSF), Aster-A
Assay type: binding
Conditions: maximal thermal shift
Source text: Protein expression constructs
Human ASTER domains of Aster-A(359-547), -B(364-552) and -C(318-504) were subcloned into a pGEX-6p-2rbs vector, thus introducing the cloning artifact ‘GPLGS’.3 The pGEX-6P-1-GST-OSBP(377- […]
a gift from James H. Hurley (University of California).4 The pHIS_2His6_Thrombin_STARD4(2-205;C75S) plasmid was a gift from Young Jun Im (Chonnam National University).5 STARD5A was a gift from Nicola Burgess-Brown (Addgene plasmid #42392; http://n2t.net/addgene:42392; […]
Protein expression and purification […]
vectors including an N-terminal PreScission-cleavable glutathione S-transferase (GST)-tag were expressed in Escherichia coli (E. coli) OverExpress C41 in Terrific Broth (TB) medium for 16 h at 18 °C after the induction with 0.1 mM isopropyl β-D-1-thiogalactopyranoside (IPTG). Cells were harvested at 3500 × g for 15 minutes and lysed by sonication in buffer containing 50 mM HEPES pH 7.5, 300 mM NaCl, 10 %v/v glycerol, 5 mM dithiothreitol (DTT), 0.1 %v/v Triton X-100 and protease inhibitor mix HP plus (Serva). The lysate was purified by affinity chromatography on a GSTrap FF column (Cytiva) using an ÄKTA Start (Cytiva) in buffer containing 50 mM HEPES pH 7.5, 300 mM NaCl, 10 %v/v glycerol, 5 mM DTT and 0.01 %v/v Triton X-100. The GST-tag was cleaved overnight on the column at 4 °C. […]

## CC12CCC3CC1CCC21C(=Nc2ccc(N4CCOCC4)cc21)O3 (single isomer, unassigned; (-)) [(−)-19a]
  Aster-A (DSF) ΔTmmax: 7.5 °C

## CC(C)(C)OC(=O)N1CCN(c2ccc3c(c2)C24CCC5CC(CCC52C)OC4=N3)CC1 (centres unmarked) [Compound 19e]
  Aster-A (DSF) ΔTmmax: 11.8 °C
